The record followed here is patent US20130336988A1, “METHODS FOR TREATING EARLY STAGE OR MILD NEUROLOGICAL DISORDERS” (NEW YORK UNIVERSITY, priority 2010, published 2013).

The subject of experiment [1] is E15 DIV3 mouse hippocampal neurons. The experiment in a line: proNT-induced growth cone collapse in cultured hippocampal neurons (live imaging and immunofluorescence). The format is cell-based. The following applies: for growth cone collapse: p75NTR-positive cells, 20 min exposure, 10 ng/ml proNGF, 10 ng/ml proBDNF with K252a, 5 ng/ml NGF. As to the method: To assay which pathways are involved in filopodial collapse, 5-10 ng/ml proNGF, 10 ng/ml proBDNF, 25-50 ng/ml BDNF (Peprotech) or 25-100 ng/ml NGF (Harlan) was added to E15 primary hippocampal neurons for 20 min before fixation. In some cases, cells were pretreated with 100 nM K-252a (Calbiochem) for 20 min, 100 nM Gö6976 (Calbiochem) for 1 hour, 5 μM EHT1864 (Sigma) for 30 min or 100 nM ITX3 (ChemBridge Corporation, cat. no. 6007262) for 45 min. To block SorCS2, cells were incubated with 20 μg/ml anti-SorCS2 or control IgG for 20 min on ice before proNGF addition at 37° C.
DIV3 hippocampal neurons were fixed in 4% paraformaldehyde/20% sucrose for 10 min. The fixative was quenched with 50 mM NH4Cl in PBS for 5 min and cells were permeabilized with 0.1% TritonX-100 in PBS for 2 min. Alternatively, cells were fixed with ice-cold methanol for 5 min. Coverslips were blocked with 10% normal donkey serum, 2% bovine serum albumin and 0.25% fish skin gelatin in Tris-buffered saline for 30 min, incubated with primary antibodies diluted in blocking solution for 30 min, washed three times with Tris-buffered saline/0.25% fish skin gelatin, incubated with secondary antibodies mixed with Hoechst in blocking buffer for additional 30 min, washed and mounted using Mowio1488. Cells were imaged using a LSM510 laser-scanning confocal microscope equipped with a 40× Plan Neofluor NA1.3 DIC oil-immersion objective (Carl Zeiss Microimaging). Images were processed using LSM510 software (Zeiss) and ImageJ (NIH).
Cells were plated on gridded glass bottom dishes (MatTek Corporation) and imaged at DIV3 in phenol red-free Neurobasal medium (Invitrogen) supplemented with 30 mM HEPES-NaOH, pH7.4 using an Olympus IX71 inverted microscope driven by IPLab software (BD Biosciences) and equipped with a 60× PlanApoN objective (NA 1.42), a Hamamatsu EM-CCD camera and a heated stage maintained at 37° C., or driven by softWoRX software (version 3.7.1, DeltaVision), and equipped with a CoolSnap HQ2 camera (Photometrics) and an environmental chamber maintained at 37° C. Images were taken every 15 seconds. After live imaging cells were fixed, counterstained for p75, located by grid number and examined for p75 expression. All movies were exported and processed using IPLab (BD Biosciences), softWoRX (version 3.7.1, DeltaVision) and ImageJ (NIH) software. Filopodia length and speed were both analyzed using ImageJ (NIH) software. For this, two times ten consecutive frames, spaced 5-10 min apart, were analyzed before and again after treatment. In the length analysis, a line was drawn along an individual filopodium and measured at every time point, and the measurements were averaged before and after treatment. For the speed analysis, the filopodial tip was tracked using the ImageJ Manual Tracking plugin. Up to four individual filopodia were analyzed per movie, and a minimum of four movies taken from separate experiments were analyzed per condition.
Primary hippocampal and cortical neurons were isolated from E15 C57BL/6 mouse embryos as previously described (PEREIRA, D. B. et al., Journal of Neuroscience 27:4859-4869 (2007)). Briefly, neurons were dissociated by incubation with 0.05% trypsin at 37° C. for 8 min followed by trituration with fire-polished glass Pasteur pipettes. Cells were plated on poly-D-lysine coated dishes and grown in Neurobasal medium containing B27, 0.5 mM glutamine (all Invitrogen) and 10 μM 5-fluorodeoxyuridine. Hippocampal neurons were transfected at DIV2 using Lipofectamine2000 (Invitrogen). For coverslips in a 24-well plate, 0.5 μg plasmid were mixed with 0.5 μl Lipofectamine2000, and for glass bottom dishes, 1.5 μg plasmid were mixed with 1.5 μl Lipofectamine2000. The complexes were added to the cells for 30-45 min, and then neurons were placed back into preconditioned media until analysis the following day. […]

The next experiment concerns Rac. The experiment in a line: Rac activity assay (GST-Pak-CRIB pull-down of activated Rac). To be noted: mouse E15 DIV2 cortical neurons; 20 min; proBDNF with K252a. The class given is cell-based, mouse. The procedure:
Rac activity assays were performed as described previously (NEUBRAND, V. E. et al., Journal of Cell Science 123:2111-2123 (2010)). […] Cells were lysed in lysis buffer supplemented with 10 mM MgCl, lysates were cleared by centrifugation at 9000 g for 1 min, and cleared lysates were incubated with GST or GST-Pak-CRIB beads for 30 min at 4° C. Beads were washed and isolated active Rac was analyzed by Western blot. As a control, extra lysates were incubated with 0.1 mM GDP or 0.1 mM GTPγS for 30 min at room temperature before incubation with GST-Pak-CRIB beads. Western blots were analyzed by densitometry using ImageJ software, and isolated active Rac was normalized to the input.
GST and GST-Pak-CRIB proteins were expressed in E. coli BL21DE3 cells at 25° C. for 3 hours. Bacteria were disrupted by incubation with PBS supplemented with lysozyme on ice for 30 min and subsequent addition of 1 mM MgCl2, 0.1% TritonX-100 and 0.1 mg/ml DNAse for an additional 30 min. Bacterial lysates were cleared by centrifugation for 5 min at 3000 g and cleared lysates were incubated with glutathione sepharose. Beads were washed and the purity of the recombinant proteins was analyzed by Coomassie blue staining. 20 μg of sepharose coupled purified protein was used per reaction.

Take “proNGF: proneurotrophin precursor of nerve growth factor, produced in Sf9 cells and purified”: the “growth cone collapse in neurons from p75NTR-/- mice” value in experiment [1] (live imaging of LifeAct-RFP transfected neurons from p75 null mice (not shown)) was “growth cone collapse was never observed”. In addition, in experiment [1] (p75NTR-positive E15 DIV3 hippocampal neurons, immunostaining), the “localisation of endogenous Trio” value is given as “redistribution of Trio along the neuritis”. The growth cone collapse result in experiment [1] is reported as “comparable in inducing growth cone collapse”. Moreover, the “Rac activity after proNT exposure” value with Rac is recorded as “significant decrease in Rac activity”.

B1: proBDNF: murine proBDNF collected from supernatants of transfected 293 cells (protein)
chain: APMKEVNVHGQGNLAYPGVRTHGTLESVNGPRAGSRGLTTTSLADTFEHVIEELLDEDQKVRPNEENHKDADLYTSRVMLSSQVPLEPPLLFLLEEYKNYLDAANMSMRVRRHSDPARRGELSVCDSISEWVTAADKKTAVDMSGGTVTVLEKVPVSKGQLKQYFYETKCNPMGYTKEGCRGIDKRHWNSQCRTTQSYVRALTMDSKKRIGWRFIRIDTSCVCTLTIKRGR
Regarding B1, the growth cone collapse result in experiment [1] is recorded as “comparable in inducing growth cone collapse”. Besides, in the experiment on Rac, the “Rac activity after proNT exposure” value was “significant decrease in Rac activity”.
